Test results taken from patent US20230348493A1, “COMPOUND FOR ADJUSTING ACTIVITY OF NMDA RECEPTOR, AND PHARMACEUTICAL COMPOSITION AND USE THEREOF” (BEIJING GREATWAY PHARMACEUTICAL TECHNOLOGY CO., LTD., priority 2020, published 2023).
Read-outs that look alike come from different tables or passages of the source.

How the values were obtained:
[1] = In-vivo metabolism (pharmacokinetic) study in rats, oral / tail intravenous; settings: rat, plasma; for bioavailability: male, SD, oral 10 mg/kg vs intravenous 1 mg/kg, rats; for AUC(0-t) / Cmax: male SD rats
Procedure: The pharmacokinetic parameters such as exposure of plasma concentrations of the compounds of examples were evaluated by oral/tail intravenous injection model tests in rats in order to evaluate the in-vivo metabolic stability in rats.
The male SD rats weighing 200±20 g and being SPF grade were used in this experiment and purchased from SPF.
Preparation of intravenous solution: 1 mg of each tested medicine was weighed accurately, and a volume was metered to 5 mL with 0.9% sodium chloride solution to prepare 0.2 mg/mL. A dose volume was 1 mL for per 200 g of weight, and the dose was 1 mg for per 1 kg of weight based on the concentration conversion.
Preparation of intragastric solution: 10 mg of each tested medicine was accurately weighed, and a volume was metered to 10 mL with 0.9% sodium chloride solution to prepare 1 mg/mL of the solution. A dose volume was 2 mL for per 200 g of weight, and the dose was 10 mg for per 1 kg of weight based on the concentration conversion.
Rats were randomly divided into 8 groups, 6 rats were in each group, oral gavage administration and tail intravenous administration were performed according to the above doses. About 0.2 mL of orbital blood was collected before administration and at 2 min, 5 min, 15 min, 30 min, 1 h, 2 h, 3 h, 4 h and 6 h after administration, respectively, and centrifuged at 3000 rpm for 10 min at 4° C., and a supernatant was taken for LC/MS/MS determination. A DAS pharmacokinetics program was used to analyze the measured data and calculate the main pharmacokinetic parameters.

NMDA receptor [2] = target: T1, NMDA receptor (Rattus norvegicus, UniProt P35439); assay: NMDA receptor agonistic properties in rat crude synaptosomal proteins (maximum [3H]-MK-801 binding vs 1 mM glycine); assay type: biochemical; settings: maximum [3H]-MK-801 binding % relative to 1 mM glycine; 50 μM glutamic acid
T1 construct: After the rats were decapitated, the prefrontal cortex and hippocampus were rapidly separated on ice; from tissue; host or cells: SD male rat prefrontal cortex and hippocampus, crude synaptosomes
Procedure: (§1) After the rats were decapitated, the prefrontal cortex and hippocampus were rapidly separated on ice and weighed, 10 volumes of 50 mM Tris-HCl buffer (50 mM Tris-HCl, 5 mM MgCl2·6H2O, 1 mM EDTA, 0.5% (W/V) BSA, 1 mM PMSF, 0.32 M sucrose, pH 7.4) was added, and the mixture was homogenized for five times at 1500 revolutions/min with 30 s each time. A homogenate was centrifuged for 10 min at 1000×g, and a supernatant was taken and centrifuged for 10 min at 40,000×g, the precipitates were collected, re-suspended with volumes of Tris-HCl buffer, incubated at 37° C. for 10 min, and centrifuged for 10 min at 40,000×g, finally the precipitates were re-suspended with the above buffer, aliquoted and stored at −80° C. for later use.
(3) Detection of Influence of Tested Medicines on NMDA Receptor Agonistic Properties in Rat Crude Synaptosomal Proteins
100 μg of rat crude synaptosomal proteins was added to all tubes respectively. 50 μl of 5,7-dichlorokynurenic acid was added to a non-specific binding tube to achieve a final concentration of 10 μM. All tubes were preloaded with 50 μM of glutamic acid, and the materials were reacted for 15 min in advance. 20 μL of control drug at corresponding concentration was added to the test tube, and then reacted for 15 min. 1 mM glycine was added to the maximum reaction tube. A volume of 30 μl of labeled ligand [^3H]-MK-801 was successively added to all tubes to achieve a final concentration of 10 nM, and reacted for 15 min. All reaction tubes were supplemented to a volume of 500 μl with 50 mM Tris-HCl buffer (50 mM Tris-HCl, 5 mM MgCl2·6H2O, 1 mM EDTA, 0.5% (WN) BSA, 0.1% NaN3, pH 7.4). A reaction was carried out at 37° C. for 15 min. A type-49 glass fiber filter membrane was prepared and a sample was applied at the same time. The filter membrane was placed in a multi-head cell collector, and the reaction system was subjected to suction filtration under negative pressure and washed with an ice-cold 50 mM Tris-HCl buffer, 10 ml each time, for a total of 5 times. After suction drying, 1 ml of scintillation liquid was added to the filter membrane, the filter membrane was placed on the shaker for shaking for 1.5 h and then placed in the liquid scintillation counter on the next day to determine the radioactive intensity.
In an agonistic experiment, maximum [^3H]-MK-801 binding %=((tested compounds cpm−5,7 dichlorokynurenic acid cpm)/(1 mM glycine cpm−5,7 dichlorokynurenic acid cpm))×100%.

NMDA receptor [3] = target: T1, NMDA receptor; assay: Inhibition of [3H]-MK-801 binding to rat crude synaptosomes (receptor ligand binding assay); settings: affinity on NMDA; [3H]-MK-801 10 nM, rat prefrontal cortex and hippocampus crude synaptosomes; read-out: IC50
Procedure: The affinity of the tested compounds on NMDA receptor was researched by receptor ligand binding assays.
Ten SD male rats of SPF grade were ordered and acclimated for 7 days for future use.
as §1
(2) Detection of Inhibitory Function of Tested Medicines on Binding of Crude Synaptosomes in Rats to [^3H]-MK-801
50 μg of rat crude synaptosomal proteins was added to all tubes respectively. A volume of 50 μl of MK-801 (dizocilpine) was added to a non-specific binding tube to achieve a final concentration of 100 μM, and the materials were reacted for 15 min in advance. 20 μL of control drug at corresponding concentration was added to the test tube for reaction for 15 min. A volume of 30 μl of labeled ligand [^3H]-MK-801 was successively added to all tubes to achieve a final concentration of 10 nM. All reaction tubes were supplemented to a volume of 200 μl with 50 mM Tris-HCl buffer (50 mM Tris-HCl, 5 mM MgCl2·6H2O, 1 mM EDTA, 0.5% (WN) BSA, 0.1% NaN3, pH 7.4). A reaction was carried out at 37° C. for 10 min. A type-49 glass fiber filter membrane was prepared and a sample was applied at the same time. The filter membrane was placed in a multi-head cell collector, and a reaction system was subjected to suction filtration under negative pressure and washed with an ice-cold 50 mM Tris-HCl buffer, 10 ml each time, for a total of 5 times. After suction drying, 1 ml of scintillation liquid was added to the filter membrane, the filter membrane was placed on a shaker for shaking for 1.5 h and then placed in a liquid scintillation counter on the next day to determine the radioactive intensity.
GraphPad5.0 software was used to analyze the data, and the percentage of competitive inhibition was calculated through nonlinear fitting, wherein:
Percentage of competitive inhibition %=((total binding tube cpm−compound cpm)/(total binding tube cpm−non-specific binding tube cpm))×100%;
Specific binding amount=total binding amount−non-specific binding amount, wherein each binding site was determined by double compound tubes.

rats = assay: Forced swimming test in rats; assay type: in vivo; settings: Rattus norvegicus, Po
Procedure: Pharmacodynamic evaluation was performed by the forced swimming tests in rats. The experimental animals were male SD rats weighing 150 g-180 g and being SPF grade, and acclimated for one week after purchase, and then subjected to forced swimming tests, the rats need be fasted for 12 hours before the tests. The compounds of examples were dissolved with normal saline, and blank control group (normal saline) and example compound administration group were established. 8-10 rats were provided for each group. On the day before the tests, the rats were placed in a glass cylinder with a height of 40 cm, an inner diameter of 18 cm, and a water depth of 23 cm for pre-swimming for 15 min, and a water temperature was 28° C. After the pre-swimming the rats were removed, wiped with a dry cloth, and dried with an electrical heater, then returned to a rearing cage, and administered. A formal forced swimming test was performed on the next day for a total of 5 min. The accumulated immobility time within 5 min was recorded, and a second forced swimming test was performed on the seventh day; the criteria for determining immobility were that the rats stopped struggling in the water, were in a floating state, and had only slight limb movements to keep the head floating on the water surface. The results are shown in Table 4, and the experimental data were statistically analyzed by GraphPad Prism 5.0 software.

Row | SMILES | bioavailability [1] | AUC(0-t) ([1]; Intravenous injection, 1 mg/kg) | Cmax ([1]; Intravenous injection, 1 mg/kg) | AUC(0-t) ([1]; Oral, 10 mg/kg) | Cmax ([1]; Oral, 10 mg/kg) | Maximum agonistic efficacy (%) (NMDA receptor [2]) | IC50 (NMDA receptor [3]) | inhibition in vivo at 0.1 mg/kg (rats; 48 h, Day 2, *P<0.05, **P<0.01 compared with the control group, read-out: Reduction percentage (%) of floating time, Day 2) | inhibition in vivo at 0.1 mg/kg (rats; 168 h, Day 7, *P<0.05, **P<0.01 compared with the control group, read-out: Reduction percentage (%) of floating time, Day 7)
1 | CC(C)[C@H](N)C(=O)N1CC2(C1)N[C@H](C(N)=O)CS2.Cl [A-260] | 74.6% | 1450 ng·h/mL | 2240 ng/mL | 10800 ng·h/mL | 6210 ng/mL | 26% | 0.26 nM | 31.6% | 15.5%
2 | C[C@@H](O)[C@H](N)C(=O)N1CCC2(CC1)N[C@H](C(N)=O)CS2.Cl [A-274] | 62.7% | 1630 ng·h/mL | 2480 ng/mL | 3350 ng·h/mL | 1880 ng/mL | 55% | 0.28 nM |  | 
3 | CC(=O)N1CCSC12CCN(C(=O)[C@@H](N)[C@@H](C)O)C2.Cl (stereo partly drawn) [A-074] |  |  |  |  |  | 38% | 0.89 nM |  | 
4 | C[C@@H](O)[C@H](NC(=O)[C@@H]1CSC2(CCNCC2)N1)C(N)=O.Cl [A-390] |  |  |  |  |  | 55% | 0.39 nM |  | 
5 | CC(C)[C@H](N)C(=O)N1CCSC12CN(C(=O)[C@@H](N)[C@@H](C)O)C2.Cl [A-331] |  |  |  |  |  | 31% | 0.59 nM |  | 
6 | CC(C)C(=O)N1CCSC12CCN(C(=O)[C@@H](N)[C@@H](C)O)CC2.Cl [A-114] |  |  |  |  |  | 35% | 0.89 nM |  | 
7 | C[C@H](NC(=O)[C@@H]1CSC2(CN(C(=O)[C@@H](N)[C@@H](C)O)C2)N1)C(N)=O.Cl [A-378] |  |  |  |  |  | 49% | 1.66 nM |  | 
8 | Cl.N[C@@H](CO)C(=O)N1CCC2(CC1)NCCS2 [A-035] |  |  |  |  |  | 19% | 0.88 nM |  | 
9 | C[C@@H](O)[C@H](N)C(=O)N1CCC2(C1)N[C@H](C(=O)N1CCCCC1)CS2.Cl (stereo partly drawn) [A-421] |  |  |  |  |  | 45% | 0.38 nM |  | 
